Structures can show the parent of a compound that is named as a salt.
B1: BDNF: brain-derived neurotrophic factor (protein, UniProt P23560 19-247, looked up)
Neurotrophic factor BDNF …: APMKEANIRGQGGLAYPGVRTHGTLESVNGPKAGSRGLTSLADTFEHVIEELLDEDQKVRPNEENNKDADLYTSRVMLSSQVPLEPPLLFLLEEYKNYLDAANMSMRVRRHSDPARRGELSVCDSISEWVTAADKKTAVDMSGGTVTVLEKVPVSKGQLKQYFYETKCNPMGYTKEGCRGIDKRHWNSQCRTTQSYVRALTMDSKKRIGWRFIRIDTSCVCTLTIKRGR
B2: FGF13: fibroblast growth factor-13 (protein, UniProt Q92913 1-245, looked up)
Fibroblast growth factor 13: MAAAIASSLIRQKRQAREREKSNACKCVSSPSKGKTSCDKNKLNVFSRVKLFGSKKRRRRRPEPQLKGIVTKLYSRQGYHLQLQADGTIDGTKDEDSTYTLFNLIPVGLRVVAIQGVQTKLYLAMNSEGYLYTSELFTPECKFKESVFENYYVTYSSMIYRQQQSGRGWYLGLNKEGEIMKGNHVKKNKPAAHFLPKPLKVAMYKEPSLHDLTEFSRSGSGTPTKSRSVSGVLNGGKSMSHNEST
B3: FGF10: fibroblast growth factor-10, keratinocyte growth factor-2 (protein, UniProt O15520 38-208, looked up)
Fibroblast growth factor 10: QALGQDMVSPEATNSSSSSFSSPSSAGRHVRSYNHLQGDVRWRKLFSFTKYFLKIEKNGKVSGTKKENCPYSILEITSVEIGVVAVKAINSNYYLAMNKKGKLYGSKEFNNDCKLKERIEENGYNTYASFNWQHNGRQMYVALNGKGAPRRGQKTRRKNTSAHFLPMVVHS
B4: CNTF: ciliary neurotrophic factor (protein, UniProt P26441 1-200, looked up)
Ciliary neurotrophic factor: MAFTEHSPLTPHRRDLCSRSIWLARKIRSDLTALTESYVKHQGLNKNINLDSADGMPVASTDQWSELTEAERLQENLQAYRTFHVLLARLLEDQQVHFTPTEGDFHQAIHTLLLQVAAFAYQIEELMILLEYKIPRNEADGMPINVGDGGLFEKKLWGLKVLQELSQWTVRSIHDLRFISSHQTGIPARGSHYIANNKKM
B5: FGF7: fibroblast growth factor-7, keratinocyte growth factor (protein, UniProt P21781 32-194, looked up)
Fibroblast growth factor 7: CNDMTPEQMATNVNCSSPERHTRSYDYMEGGDIRVRRLFCRTQWYLRIDKRGKVKGTQEMKNNYNIMEIRTVAVGIVAIKGVESEFYLAMNKEGKLYAKKECNEDCNFKELILENHYNTYASAKWTHNGGEMFVALNQKGIPVRGKKTKKEQKTAHFLPMAIT

The molecules below were run on CD31-cells (BAT progenitor cells isolated from human skeletal muscle) (assay: Quantification of UCP1 and PPARγ2 mRNA (normalized to cyclophilin A) by multiplexed TaqMan real-time PCR to quantify differentiation into brown adipocytes). Details: not given.
Type: cell-based
Description: A robust method, previously disclosed in WO2013071063 and incorporated herein by reference, was used for detection of CD31-cell differentiation into brown adipocytes by simultaneously quantifying mRNA species corresponding to the brown adipocyte marker UCP1, the adipocyte marker PPARγ2, and the “housekeeping” gene cyclophilin A which was used as the internal control.
This method permits analysis of a large number of samples to identify agents that enhance the differentiation of CD31-cells into brown adipocytes. When differentiated into brown adipocytes CD31-cells express much higher levels of UCP1 and PPARγ2 mRNA for a given level of cyclophilin A. UCP1 and PPARγ2 mRNA levels normalized to cyclophilin A mRNA levels give an indication of the level of differentiation of the CD31-cells into brown adipocytes, independent of the total number of cells in the sample.
Quantification of UCP1, PPARγ2 and cyclophilin A mRNA by multiplexed TaqMan real-time PCR was thus used to quantify differentiation of the CD31-cells into brown adipocytes.
Cells were seeded at 10,000 per cm^2 in 0.2% gelatin coated plates (48-well tissue culture, Chemglass #CLS-3500-048), cultured until confluency (2-4 days) at 37° C. in Endothelial cell growth medium-2 (EGM2) (BulletKit growth medium, Lonza #CC-3162) and until differentiation (10-16 more days). After 2 or 3 days in EGM2 medium the cells were induced to differentiate by replacing the medium with an adipogenic medium, which is a modification of the adipogenic medium described by Rodriguez et al. and may or may not contain a differentiation inducing agent (e.g., PPARγ agonist). […] If rosiglitazone is used as a differentiation-inducing agent, it can be supplied at 1 μM or any other concentration sufficient to induce differentiation of BAT progenitor cells into adipocytes.
Total RNA was prepared from cells using PureLink RNA Isolation Kit (Invitrogen #12183-016) First strand cDNA were synthesized using the High Capacity cDNA Reverse Transcription kit (Applied Biosystems, Foster City, Calif.) and random primers.
Quantitative real-time PCR was performed using an Applied Biosystems StepOnePlus™ instrument, TaqMan Gene Expression Master Mix (Applied Biosystems #4369016), and custom TaqMan gene expression probes and primers for human uncoupling protein-1 “UCP1” (GenBank NM_021833) and for human peptidylprolyl isomerase A “cyclophilin A” (GenBank NM_021130).
Cyclophilin A was used as a control to account for any variations due to the efficiency of reverse transcription. Arbitrary units were determined by normalizing target mRNA levels to cyclophilin A mRNA levels (based on Cts).

Molecule | differentiation of BAT progenitor cells into brown adipocytes and/or expression of UCP1, PPARγ2 mRNA
CCCCC[C@H](O)/C=C/[C@@H]1[C@@H](C/C=C\CCCC(=O)O)[C@H](O)C[C@H]1O [9β,11α-prostaglandin F2] | promote the differentiation of BAT progenitor cells into brown adipocytes and/or induce the expression of UCP1
O=C1NC(c2cccc([N+](=O)[O-])c2)=CCN1c1ccccc1O [icilin] | promote the differentiation of BAT progenitor cells into brown adipocytes and/or induce the expression of UCP1
CC1CCC(C(C)C)C(O)C1 (stereo not drawn) [menthol] | promote the differentiation of BAT progenitor cells into brown adipocytes and/or induce the expression of UCP1
CC1(C)CC[C@]2(C(=O)O)CC[C@]3(C)C(=CC[C@@H]4[C@@]5(C)CC[C@H](O)C(C)(C)[C@@H]5CC[C@]43C)[C@@H]2C1 [oleanolic acid] | promote the differentiation of BAT progenitor cells into brown adipocytes and/or induce the expression of UCP1
COC(=O)N(C)c1c(N)nc(-c2nn(Cc3ccccc3F)c3ncccc23)nc1N [riociguat] | promote the differentiation of BAT progenitor cells into brown adipocytes and/or induce the expression of UCP1
COc1ccc(C2CNC(=O)C2)cc1OC1CCCC1 (stereo not drawn) [rolipram] | promote the differentiation of BAT progenitor cells into brown adipocytes and/or induce the expression of UCP1
CN/C(=N\c1ccc(C2=NNC(=O)CC2C)cc1)NC#N (stereo not drawn) [siguazodan] | promote the differentiation of BAT progenitor cells into brown adipocytes and/or induce the expression of UCP1
BNP: b-type natriuretic peptide | promote the differentiation of BAT progenitor cells into brown adipocytes and/or induce the expression of UCP1
PACAP Propeptide of 55 aa (aa 25-79): peptide derived from the Pituitary adenylate cyclase-activating polypeptide (PACAP, ADCYAP1, UniProt P18509) gene (SPAAAGLRFPGIRPEEEAYGEDGNPLPDFDGSEPPGAGSPASAPRAAAAWYRPAG; UniProt P18509 25-79, looked up, fragment) | promote the differentiation of BAT progenitor cells into brown adipocytes and/or induce the expression of UCP1
bombesin | promote the differentiation of BAT progenitor cells into brown adipocytes and/or induce the expression of UCP1
interleukin-6 (IL-6): Interleukin-6, UniProt P05231 | promote the differentiation of BAT progenitor cells into brown adipocytes and/or induce the expression of UCP1
orexin B: orexin B | promote the differentiation of BAT progenitor cells into brown adipocytes and/or induce the expression of UCP1
B1 | promote the differentiation of BAT progenitor cells into brown adipocytes and/or induce the expression of UCP1
B2 | promote the differentiation of BAT progenitor cells into brown adipocytes and/or induce the expression of UCP1
B3 | promote the differentiation of BAT progenitor cells into brown adipocytes and/or induce the expression of UCP1
B4 | promote the differentiation of BAT progenitor cells into brown adipocytes and/or induce the expression of UCP1
B5 | promote the differentiation of BAT progenitor cells into brown adipocytes and/or induce the expression of UCP1

These molecules were tested on CD31-cells (brown adipocyte progenitors) (assay: Quantification of UCP1 protein by immunohistochemistry (IHC)). Details: total intensity of UCP1 signal normalized to cell number.
Type: cell-based, human
Description: Differentiation of brown adipocyte progenitors into brown adipocytes can be detected through quantification of UCP1 protein by immunohistochemistry (IHC).
Culturing and differentiation of CD31-cells into brown adipocytes were performed using adipogenic differentiation medium lacking (Minimal Differentiation Medium, MDM) or containing 1 μM rosiglitazone (Reference Differentiation Medium, RDM). After 15 days of differentiation cells were fixed with 4% Paraformaldehyde PBS pH 7.4, and incubated with a UCP1 antibody (Abcam ab23841) and Alexafluor 488 goat anti-rabbit antibody to quantify relative UCP1 levels (green) according to standard protocols. Prior to fixation of cells, nuclei were labeled with 5 μM DAPI (blue) for 10 minutes. Each treatment condition was evaluated in triplicate in a 96-well plate corresponding to approximately 360-480 cells for each data point in total. The InCell 1000 Developer Toolbox software was used to develop an automated cell detection script to measure UCP1 signal intensity, using the nuclei and cytoplasm detection algorithms. As a readout, total intensity of UCP1 signal within the cell was used, normalized to cell number.

Molecule | UCP1 protein signal (IHC), differentiation of brown adipocyte progenitors into brown adipocytes
COc1cc2c(c(OC)c1OC)-c1ccc(OC)c(=O)cc1[C@@H](NC(C)=O)CC2 [Colchicine] | identified using this technique
NC(N)=Nc1nc(CSCCC(N)=NS(N)(=O)=O)cs1 [Famotidine] | identified using this technique
N=C(N)NC(=O)Cc1c(Cl)cccc1Cl [Guanfacine hydrochloride] | identified using this technique
CN(C)C(=N)N=C(N)N [Metformin] | identified using this technique
COC(=O)[C@H]1[C@H]2C[C@@H]3c4[nH]c5cc(OC)ccc5c4CCN3C[C@H]2C[C@@H](OC(=O)c2cc(OC)c(OC)c(OC)c2)[C@@H]1OC [Reserpine] | identified using this technique
O=C(CCCN1CCC2(CC1)C(=O)NCN2c1ccccc1)c1ccc(F)cc1 [Spiperone] | identified using this technique
CCSc1ccc2c(c1)N(CCCN1CCN(C)CC1)c1ccccc1S2 [Thiethylperazine] | identified using this technique
